Measurements as given in patent publication US4710500A, “1-(4'-fluorophenyl)-3,5-substituted indoles useful in the treatment of psychic disorders and pharmaceutical compositions thereof” (H. Lundbeck A/S, priority 1985, dated 1987).
Counter-ions that a name gives are not always drawn. Like-named read-outs stand apart in the source and are kept apart here.

Experiments:
[1] = test system: methylphenidate-induced gnawing; test: Methylphenidate antagonism; assay type: in vivo, mice; conditions: for ED50: Mus musculus; for MePh Antg. ED50 (sc): *ED50 from sc administration
[2] = in vivo; conditions: mouse, iv
[3] = Catalepsy; assay type: in vivo, rat; conditions: for Catalep. ED50 (sc) 1-6 h / Catalep. ED50 (sc) 24 h: *ED50 from sc administration
[4] = target: T1, 5-HT2 receptor (Rattus norvegicus, UniProt P14842); test: Quipazine inhibition (head twitches); assay type: in vivo; conditions: sc 2 hours before quipazine 15 umol/kg sc
T1 construct: from tissue; host or cells: living rats (in vivo), CNS
T1 sequence (P14842 whole entry): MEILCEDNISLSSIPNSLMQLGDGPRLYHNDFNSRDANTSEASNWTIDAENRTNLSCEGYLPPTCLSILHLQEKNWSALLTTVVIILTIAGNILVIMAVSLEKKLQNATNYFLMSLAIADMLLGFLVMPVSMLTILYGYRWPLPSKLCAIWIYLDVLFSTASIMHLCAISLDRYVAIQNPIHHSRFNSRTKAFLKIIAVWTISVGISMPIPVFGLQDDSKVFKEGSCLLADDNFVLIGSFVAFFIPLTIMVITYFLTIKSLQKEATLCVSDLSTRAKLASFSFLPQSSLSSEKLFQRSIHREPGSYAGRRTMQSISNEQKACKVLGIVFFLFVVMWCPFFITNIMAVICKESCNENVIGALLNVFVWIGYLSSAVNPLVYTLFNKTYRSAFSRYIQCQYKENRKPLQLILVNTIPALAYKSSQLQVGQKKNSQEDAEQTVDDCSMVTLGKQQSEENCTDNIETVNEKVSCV
Method: Quipazine and a number of other compounds, which increase 5-HT2 receptor activity in the CNS, induce a characteristic rapid shake (twitch) of the head. This response is inhibited by 5-HT2 receptor antagonists (Vetulani et al. 1980, Arnt et al. 1984).
The test compound or saline is injected subcutaneously 2 hours before subcutaneous injection of quipazine hemimalecate (15umol/kg). At least 3 dose groups, each consisting of at least 4 rats, are used. The rats are individually placed in observation cages (12×25 cm) and the number of head twitches are counted 30-40 min after quipazine administration. Inhibition of head twitches is expressed in per cent of the number of head twitches in the control group. ED 50 values are calculated by log-probit analysis.
Vetulani, J., B.B. Beduarczyk, K. Reichenberg and A. Rokost: Neuropharmacology 19, 155-158, […].
(§1) Arnt, J., J. Hyttel and J.-J. Larsen: Acta pharmacol. et toxicol. 55, 363-372, 1984.

[5] = target: T2, dopamine (DA) D-2 receptors (Rattus norvegicus, UniProt P61169); test: 3H-spiroperidol binding, dopamine D-2 receptors in rat striatal membranes
T2 construct: DA D-2 receptors in rat striatal membranes; from tissue; host or cells: rat striatal membranes
T2 sequence (P61169 whole entry): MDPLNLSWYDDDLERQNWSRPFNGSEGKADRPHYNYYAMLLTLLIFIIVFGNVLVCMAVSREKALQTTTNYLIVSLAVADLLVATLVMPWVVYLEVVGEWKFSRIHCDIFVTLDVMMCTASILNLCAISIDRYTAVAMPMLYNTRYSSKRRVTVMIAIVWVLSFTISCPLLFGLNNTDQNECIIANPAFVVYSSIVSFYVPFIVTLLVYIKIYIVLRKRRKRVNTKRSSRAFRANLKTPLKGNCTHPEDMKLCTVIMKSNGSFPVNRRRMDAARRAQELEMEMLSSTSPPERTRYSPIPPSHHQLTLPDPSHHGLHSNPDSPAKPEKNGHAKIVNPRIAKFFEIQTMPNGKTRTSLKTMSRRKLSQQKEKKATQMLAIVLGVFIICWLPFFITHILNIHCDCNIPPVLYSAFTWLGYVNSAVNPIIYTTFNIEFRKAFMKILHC
Method: (§2) 4. ^3 H-spiroperidol bindings
The affinity of compounds to dopamine (DA) D-2 receptors and serotomin2 (5-HT2) receptors was determined by in vitro receptor binding technique.
Arnt, J., J. Hyttel and J.-J. Larsen: Acta pharmacol. et toxicol.

[6] = target: T3, serotomin2 (5-HT2) receptors (Rattus norvegicus, UniProt P14842); test: 3H-spiroperidol binding, 5-HT2 receptors in rat cortical membranes; conditions: in vitro, read-out: 3H-Spiroperidol bindings 5-HT2 receptors IC50
T3 construct: 5-HT2 receptors in rat cortical membranes; from tissue; host or cells: rat cortical membranes
T3 sequence (P14842 whole entry): as the sequence (P14842 whole entry) above
Method: as §2
The affinity of compounds to dopamine (DA) D-2 receptors and serotomin2 (5-HT2) receptors was determined by in vitro receptor binding technique. Binding of ^3 H-spiroperidol to DA D-2 receptors in rat striatal membranes and to 5-HT2 receptors in rat cortical membranes was determined as described in detail by Arnt et al. (1984).
as §1

[7] = ip, read-out: MePh Antg. ED50(ip)
[8] = Rattus norvegicus, po, read-out: Catalep. ED50(po) 1-6 h
[9] = i.p. test substance, mice, methylphenidate s.c. 60 mg/kg
[10] = rat striatal membranes, in vitro, read-out: 3H-Spiroperidol bindings DA-2 receptors IC50
[11] = Rattus norvegicus, po, 24 h, read-out: Catalep. ED50(po) 24 h
[12] = ip, i.p. test substance, mice, methylphenidate s.c. 60 mg/kg, read-out: MePh Antg. ED50(ip)
[13] = read-out: Catalep. ED50(po) 1-6 h, po, rat, 1-6 h
[14] = read-out: Catalep. ED50(po) 24 h, po, rat, 24 h
[15] = Rattus norvegicus, sc, 24 h, read-out: Catalep. ED50 (sc) 24 h
[16] = Rattus norvegicus, sc, read-out: Catalep. ED50 (sc) 1-6 h
[17] = mice, methylphenidate s.c. 60 mg/kg

| SMILES | Qvipaz. inh. ED50(sc) [4] [µmol/kg] | IC50 [5] [nM] | IC50 [6] [nM] | MePh Antg. ED50 (sc) [1, 17] [µmol/kg] | other results |
| --- | --- | --- | --- | --- | --- |
| CN(C)CCCN1c2ccccc2Sc2ccc(Cl)cc21 [Clorpromazine, reference compound] |  |  |  |  | ED50 [1, 7]: 23 µmol/kg; LD50 [2]: 120 to 180 µmol/kg; ED50 [3, 8]: 70 µmol/kg |
| Cc1ccc2c(c1)c(C1=CCN(C)CC1)cn2-c1ccc(F)cc1.Cl [Lu 20-089, 1-(4'-Fluorophenyl)-5-methyl-3-(1-methyl-1,2,3,6-tetrahydropyridin-4-yl)-1H-indole, hydrochloride] | 0.12 | 0.34 | 1.8 |  | MePh Antg. ED50(ip) [1, 9]: 0.18 µmol/kg; Catalep. ED50(po) 1-6 h ([3]; po, rat, 1-6 h): 0.43 µmol/kg; Catalep. ED50(po) 24 h ([3]; po, rat, 24 h): 6.5 µmol/kg |
| CN1CC=C(c2cn(-c3ccc(F)cc3)c3ccc(F)cc23)CC1.Cl [Lu 21-018, 5-Fluoro-1-(4'-fluorophenyl)-3-(1-methyl-1,2,3,6-tetrahydropyridin-4-yl)-1H-indole, hydrochloride] | 0.15 |  | 3 |  | IC50 [5, 10]: 0.74 nM; ED50 [1, 7]: 0.58 µmol/kg; ED50 [3, 11]: > 6.9 µmol/kg; ED50 [3, 8]: 2 µmol/kg |
| CN1CC=C(c2cn(-c3ccc(F)cc3)c3ccc(C(F)(F)F)cc23)CC1.O=C(O)C(=O)O [Lu 21-120, 1-(4'-Fluorophenyl)-3-(1-methyl-1,2,3,6-tetrahydropyridin-4-yl)-5-trifluoromethyl-1H-indole, oxalate] | 0.03 | 0.61 | 3.1 |  | ED50 [1, 7]: 0.08 µmol/kg; ED50 [3, 11]: 0.35 µmol/kg; ED50 [3, 8]: 0.32 µmol/kg |
| CN1CCN(c2cn(-c3ccc(F)cc3)c3ccc(C(F)(F)F)cc23)CC1 [Lu 21-123, 1-(4'-Fluorophenyl)-3-(4-methylpiperazio)-5-trifluoromethyl-1H-indole, dihydrochloride] |  |  | 6.7 |  | IC50 [5, 10]: 1.7 nM; ED50 [1, 12]: 0.09 µmol/kg; ED50 [3, 13]: 0.08 µmol/kg; ED50 [3, 14]: 0.62 µmol/kg |
| Fc1ccc(-n2cc(N3CCNCC3)c3cc(C(F)(F)F)ccc32)cc1 [Lu 21-153, 1-(4'-Fluorophenyl)-3-piperazino-5-trifluoromethyl-1H-indole] | 0.37 |  | 6.7 |  | IC50 [5, 10]: 3.7 nM; ED50 [1, 12]: 2 µmol/kg; ED50 [3, 13]: 7.1 µmol/kg; ED50 [3, 14]: 16 µmol/kg |
| Br.CN1CC=C(c2cn(-c3ccc(F)cc3)c3ccc(Cl)cc23)CC1 [Lu 22-117, 5-Chloro-1-(4'-fluorophenyl)-3-(1-methyl-1,2,3,6-tetrahydropyridin-4-yl)-1H-indole, hydrobromide] | 0.052 | 1.2 | 0.66 |  | ED50 [1, 7]: 0.06 µmol/kg; ED50 [3, 15]: > 0.37 µmol/kg; ED50 [3, 16]: 0.09 µmol/kg |
| O=C1CCCN1CCN1CCN(c2cn(-c3ccc(F)cc3)c3ccc(C(F)(F)F)cc23)CC1 [Lu 22-133, 1-(4'-Fluorophenyl)-3-(4-(1-pyrrolidin-2-onylethyl)-1-piperazino)-5-trifluoromethyl-1H-indole] | 0.15 |  | 1.9 |  | ED50 [1, 12]: 0.82 µmol/kg; ED50 [3, 15]: 1.7 µmol/kg; ED50 [3, 16]: 0.66 µmol/kg |
| O=C1NCCN1CCN1CCN(c2cn(-c3ccc(F)cc3)c3ccc(C(F)(F)F)cc23)CC1 [Lu 23-001, 1-(4'-Flurophenyl)-3-(4-(2-imidazolidinon-1-ylethyl)-1-piperazino)-5-trifluoromethyl-1H-indole, dihydrobromide] | 0.047 |  | 18 |  | IC50 [5, 10]: 6.6 nM; MePh Antg. ED50(ip) [1, 9]: 0.22 µmol/kg; Catalep. ED50(po) 1-6 h ([3]; po, rat, 1-6 h): 1.2 µmol/kg; Catalep. ED50(po) 24 h ([3]; po, rat, 24 h): 2.6 µmol/kg |
| O=C1CCCN1CCN1CC=C(c2cn(-c3ccc(F)cc3)c3ccc([N+](=O)[O-])cc23)CC1 [Lu 23-024, 1-(4'-Fluorophenyl)-5-nitro-3-(1-pyrrolidin-2-onylethyl)-1,2,3,6-tetrahydropyridin-4-yl)-1H-indole, hydrochloride] |  |  | 5.3 |  | MePh Antg. ED50(ip) [1, 9]: 0.65 µmol/kg; Catalep. ED50 (sc) 1-6 h ([3]; rat, 1-6 h): 6.8 µmol/kg; Catalep. ED50 (sc) 24 h ([3]; rat, 24 h): > 10 µmol/kg |
| O=C1NCCN1CCN1CCC(c2cn(-c3ccc(F)cc3)c3ccccc23)CC1 [Lu 23-086, 1-(4'-Fluorophenyl)-3-(1-(2--imidazolidinon-1-ylethyl)-4-piperidyl)-1H-indole] | 0.036 |  | 2.9 | > 98 | IC50 [5, 10]: 42 nM |
| O=C1OCCN1CCN1CC=C(c2cn(-c3ccc(F)cc3)c3ccc([N+](=O)[O-])cc23)CC1 [Lu 23-134, 1-(4'-Fluorophenyl)-5-nitro-3-(1-(2-oxazolidinon-3-ylethyl)-1,2,36-tetrahydropyridin-4-yl)-1H-indole, maleate] |  | 2.8 | 15 | 9.0 | Catalep. ED50(po) 1-6 h ([3]; po, rat, 1-6 h): 1.1 µmol/kg; Catalep. ED50(po) 24 h ([3]; po, rat, 24 h): > 8.8 µmol/kg |
| O=C1NCCN1CCN1CC=C(c2cn(-c3ccc(F)cc3)c3ccc([N+](=O)[O-])cc23)CC1 [Lu 23-142, 1-(4'-Fluorophenyl)-3-(1-(2-imidazolidinon-1-ylethyl)-1,2,3,6-tetrahydropridin-4-yl)-5-nitro-1H-indole] |  |  | 6.7 | 2.6 |  |
| O=[N+]([O-])c1ccc2c(c1)c(C1=CCN(CCO)CC1)cn2-c1ccc(F)cc1 [Lu 23-150, 1-(4'-fluoropheynl)-3-(1-(2-hydroxyethyl)-1,2,3,6-tetrahydropyridin-4-yl)-5-nitro-1H-indole] |  | 4.7 | 10 | 0.07 | Catalep. ED50(po) 1-6 h ([3]; po, rat, 1-6 h): 0.21 µmol/kg |
| OCCN1CC=C(c2cn(-c3ccc(F)cc3)c3ccc(C(F)(F)F)cc23)CC1 [Lu 23-156, 1-(4'-Fluorophenyl)-3-(1-(2-hydroxyethyl)-1,2,3,6-tetrahydropyridin-4-yl) -5-trifluoromethyl-1H-indole] | 0.03 | 19 | 15 |  | ED50 ([1]; sc, read-out: MePh Antg. ED50 (sc)): 0.07 µmol/kg; ED50 [3, 15]: 1.1 µmol/kg; ED50 [3, 16]: < 0.19 µmol/kg |
| OCCN1CC=C(c2cn(-c3ccc(F)cc3)c3ccc(F)cc23)CC1 [Lu 23-160, 5-fluoro-1-(4'-flurophenyl)-3-(1-(2-hydroxyethyl)-1,2,3,6-tetrahydropyridin-4-yl)-1H-indole, oxalate] |  | 11 | 34 | 3.4 | Catalep. ED50 (sc) 24 h ([3]; rat, 24 h): 5.2 µmol/kg |
| Cc1nccn1CCN1CC=C(c2cn(-c3ccc(F)cc3)c3ccc(C(F)(F)F)cc23)CC1 [Lu 23-173, 1-(4'-Fluorophenyl)-3-(1-(2-methyl-1-imidazole-2-ethyl)-1,2,3,6-tetrahydropyridin-4-yl)-5-trifluoromethyl-1H-indole, difumarate] | > 7.1 | 42 | 60 | 0.77 | Catalep. ED50 (sc) 1-6 h ([3]; rat, 1-6 h): 1.8 µmol/kg |
| OCCCN1CC=C(c2cn(-c3ccc(F)cc3)c3ccc(F)cc23)CC1 [Lu 23-175, 5-Fluor-1-(4'-fluorophenyl)-3-(1-(3-hydroxypropyl)-1,2,3,6-tetrahydropyridin-4-yl)-1H-indole, oxalate] |  | 11 | 6.7 | 0.32 | Catalep. ED50 (sc) 1-6 h ([3]; rat, 1-6 h): 0.68 µmol/kg |
| CN1CC=C(c2cn(-c3ccsc3)c3ccc(Cl)cc23)CC1.O=C(O)/C=C\C(=O)O [Lu 24-001, 5-Chloro-3-(1-methyl-1,2,3,6-tetrahydropyridin-4-yl)-1-(3-thienyl)-1H-indole, maleate] | 0.19 |  | 8.8 |  | MePh Antg. ED50(ip) [1, 9]: 2.6 µmol/kg |
| CN1CC=C(c2cn(-c3ccccc3F)c3ccc([N+](=O)[O-])cc23)CC1 [Lu 24-003, 1-(2'-Fluorophenyl)-5-nitro-3-(1-methyl-1,2,3,6-tetrahydropyridin-4-yl)-1H-indole, maleat] |  | 6 | 14 | 0.09 |  |
